Experimental data from the kinase profiling compilation of Christmann-Franck et al. (2016).

What was measured:
Assay in all cases: KINOMEscan competition binding
Conditions in all cases: compound 10.0 µM
[1] = target: TTK (human) (UniProt P33981)
[2] = target: NEK1 (human) (UniProt Q96PY6)
[3] = target: DAPK1 (human) (UniProt P53355)
[4] = target: MUSK (human) (UniProt O15146)
[5] = target: NEK2 (human) (UniProt P51955)
[6] = target: CDKL5 (human) (UniProt O76039)
[7] = target: ADCK4 (human) (UniProt Q96D53)
[8] = target: CSNK2A1 (human) (UniProt P68400)
[9] = target: STK35 (human) (UniProt Q8TDR2)
[10] = target: DCLK2 (human) (UniProt Q8N568)
[11] = target: STK36 (human) (UniProt Q9NRP7)
[12] = target: CDK16 (human) (UniProt Q00536)
[13] = target: FLT4 (human) (UniProt P35916)
[14] = target: BMPR2 (human) (UniProt Q13873)
[15] = target: GSK3A (human) (UniProt P49840)
[16] = target: PIM2 (human) (UniProt Q9P1W9)
[17] = target: PIK3C2G (human) (UniProt O75747)
PIK3C2G (human), sequence (O75747 whole entry, looked up): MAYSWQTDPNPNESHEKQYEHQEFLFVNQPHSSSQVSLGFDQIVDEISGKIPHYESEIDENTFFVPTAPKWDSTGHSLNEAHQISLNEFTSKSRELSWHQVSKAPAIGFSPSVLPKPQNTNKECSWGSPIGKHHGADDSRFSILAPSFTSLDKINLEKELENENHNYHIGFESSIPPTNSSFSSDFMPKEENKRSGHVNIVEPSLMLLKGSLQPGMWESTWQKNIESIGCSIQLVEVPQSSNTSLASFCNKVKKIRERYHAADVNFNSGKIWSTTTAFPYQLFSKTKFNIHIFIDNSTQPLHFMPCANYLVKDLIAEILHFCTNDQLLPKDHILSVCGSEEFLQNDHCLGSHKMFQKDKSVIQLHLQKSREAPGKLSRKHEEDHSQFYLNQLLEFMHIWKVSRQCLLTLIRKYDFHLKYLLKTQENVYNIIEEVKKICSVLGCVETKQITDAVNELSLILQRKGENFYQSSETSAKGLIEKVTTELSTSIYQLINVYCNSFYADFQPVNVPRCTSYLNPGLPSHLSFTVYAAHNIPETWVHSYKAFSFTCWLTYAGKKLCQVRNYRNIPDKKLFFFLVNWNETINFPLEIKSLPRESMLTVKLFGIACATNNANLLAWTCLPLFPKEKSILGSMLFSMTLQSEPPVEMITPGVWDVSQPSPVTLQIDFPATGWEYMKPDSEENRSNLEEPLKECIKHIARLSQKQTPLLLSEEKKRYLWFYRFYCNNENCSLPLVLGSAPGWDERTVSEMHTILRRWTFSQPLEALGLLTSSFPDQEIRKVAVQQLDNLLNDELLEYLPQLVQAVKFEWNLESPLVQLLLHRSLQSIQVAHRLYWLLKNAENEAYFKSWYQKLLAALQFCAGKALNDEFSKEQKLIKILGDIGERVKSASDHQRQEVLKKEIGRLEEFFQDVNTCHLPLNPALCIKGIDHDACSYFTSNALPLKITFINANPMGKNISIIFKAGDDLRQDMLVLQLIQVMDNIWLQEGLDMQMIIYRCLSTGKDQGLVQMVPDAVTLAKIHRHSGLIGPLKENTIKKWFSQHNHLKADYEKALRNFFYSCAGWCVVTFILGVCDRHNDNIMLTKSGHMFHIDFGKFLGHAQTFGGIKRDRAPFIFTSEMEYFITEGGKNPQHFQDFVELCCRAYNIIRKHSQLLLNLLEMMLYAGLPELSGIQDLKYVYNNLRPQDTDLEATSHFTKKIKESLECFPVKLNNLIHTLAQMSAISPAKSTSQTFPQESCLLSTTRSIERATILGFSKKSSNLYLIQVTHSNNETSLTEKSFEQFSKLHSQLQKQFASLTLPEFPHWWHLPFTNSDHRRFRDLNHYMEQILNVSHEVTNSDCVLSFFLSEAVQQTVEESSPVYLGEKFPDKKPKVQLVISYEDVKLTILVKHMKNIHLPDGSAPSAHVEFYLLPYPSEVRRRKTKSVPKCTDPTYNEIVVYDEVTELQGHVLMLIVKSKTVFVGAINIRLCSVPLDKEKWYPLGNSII

[18] = target: PIK3CD (human) (UniProt O00329)
[19] = target: NTRK3 (human) (UniProt Q16288)
[20] = target: PRKACA (human) (UniProt P17612)
[21] = target: DCLK3 (human) (UniProt Q9C098)
[22] = target: EPHA6 (human) (UniProt Q9UF33)
[23] = target: LIMK1 (human) (UniProt P53667)
LIMK1 (human), sequence (P53667 whole entry, looked up): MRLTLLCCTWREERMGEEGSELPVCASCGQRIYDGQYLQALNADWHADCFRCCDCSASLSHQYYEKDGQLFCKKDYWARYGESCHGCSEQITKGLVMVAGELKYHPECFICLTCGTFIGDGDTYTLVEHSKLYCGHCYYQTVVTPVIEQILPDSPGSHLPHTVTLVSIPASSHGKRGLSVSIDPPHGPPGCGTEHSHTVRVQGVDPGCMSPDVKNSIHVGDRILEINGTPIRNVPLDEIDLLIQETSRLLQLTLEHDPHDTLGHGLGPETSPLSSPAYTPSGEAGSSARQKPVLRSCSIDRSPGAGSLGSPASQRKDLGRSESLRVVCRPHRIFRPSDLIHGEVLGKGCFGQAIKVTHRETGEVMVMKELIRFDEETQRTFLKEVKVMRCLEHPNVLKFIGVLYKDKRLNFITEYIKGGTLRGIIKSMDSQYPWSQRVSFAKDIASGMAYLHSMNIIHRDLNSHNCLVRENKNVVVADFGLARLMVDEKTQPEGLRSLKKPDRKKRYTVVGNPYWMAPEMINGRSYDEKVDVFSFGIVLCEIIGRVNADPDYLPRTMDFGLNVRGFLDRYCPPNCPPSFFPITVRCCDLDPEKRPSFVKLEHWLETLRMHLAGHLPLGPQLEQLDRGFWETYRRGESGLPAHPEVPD

[24] = target: EGFR (human) (UniProt P00533)
[25] = target: MAPK12 (human) (UniProt P53778)
[26] = target: MAPKAPK2 (human) (UniProt P49137)
[27] = target: HCK (human) (UniProt P08631)
[28] = target: CAMK2A (human) (UniProt Q9UQM7)
[29] = target: MAPKAPK5 (human) (UniProt Q8IW41)
[30] = target: CSNK1A1L (human) (UniProt Q8N752)
CSNK1A1L (human), sequence (Q8N752 whole entry, looked up): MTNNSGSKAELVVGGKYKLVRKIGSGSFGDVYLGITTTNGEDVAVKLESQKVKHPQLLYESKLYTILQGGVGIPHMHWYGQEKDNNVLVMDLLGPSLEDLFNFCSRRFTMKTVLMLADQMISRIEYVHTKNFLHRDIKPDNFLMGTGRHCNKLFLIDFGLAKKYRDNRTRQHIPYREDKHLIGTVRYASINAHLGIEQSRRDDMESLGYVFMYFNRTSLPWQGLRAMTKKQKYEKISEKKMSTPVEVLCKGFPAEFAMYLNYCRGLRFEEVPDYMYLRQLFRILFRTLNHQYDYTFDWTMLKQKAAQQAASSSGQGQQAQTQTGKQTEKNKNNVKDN

[31] = target: CLK3 (human) (UniProt P49761)
[32] = target: NTRK2 (human) (UniProt Q16620)
[33] = target: MAPK14 (human) (UniProt Q16539)
[34] = target: MAK (human) (UniProt P20794)
[35] = target: SIK2 (human) (UniProt Q9H0K1)
SIK2 (human), sequence (Q9H0K1 whole entry, looked up): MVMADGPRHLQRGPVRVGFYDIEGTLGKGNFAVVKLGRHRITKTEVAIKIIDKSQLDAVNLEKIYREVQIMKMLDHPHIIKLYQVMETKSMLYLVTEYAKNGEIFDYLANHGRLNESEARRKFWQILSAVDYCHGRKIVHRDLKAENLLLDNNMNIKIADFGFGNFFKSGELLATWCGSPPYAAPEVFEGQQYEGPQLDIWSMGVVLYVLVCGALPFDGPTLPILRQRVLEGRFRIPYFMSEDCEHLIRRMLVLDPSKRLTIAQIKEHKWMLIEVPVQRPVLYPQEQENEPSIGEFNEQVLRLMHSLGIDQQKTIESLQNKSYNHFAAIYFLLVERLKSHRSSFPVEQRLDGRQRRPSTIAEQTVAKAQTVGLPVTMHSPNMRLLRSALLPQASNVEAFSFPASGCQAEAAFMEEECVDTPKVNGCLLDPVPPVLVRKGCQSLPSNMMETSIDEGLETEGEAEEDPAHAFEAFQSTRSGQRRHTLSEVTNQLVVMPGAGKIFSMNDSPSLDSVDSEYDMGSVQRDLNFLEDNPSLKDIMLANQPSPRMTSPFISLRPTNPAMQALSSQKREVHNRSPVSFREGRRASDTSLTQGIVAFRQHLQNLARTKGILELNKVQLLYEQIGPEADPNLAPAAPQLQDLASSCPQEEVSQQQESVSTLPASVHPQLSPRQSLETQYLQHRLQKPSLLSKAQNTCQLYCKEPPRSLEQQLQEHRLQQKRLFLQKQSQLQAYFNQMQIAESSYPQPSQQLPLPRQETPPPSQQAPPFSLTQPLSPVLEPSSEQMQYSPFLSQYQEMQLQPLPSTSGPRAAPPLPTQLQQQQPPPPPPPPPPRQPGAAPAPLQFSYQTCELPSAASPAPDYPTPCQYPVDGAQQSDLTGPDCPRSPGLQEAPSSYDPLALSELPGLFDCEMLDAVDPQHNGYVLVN

[36] = target: TIE1 (human) (UniProt P35590)
[37] = target: EPHA4 (human) (UniProt P54764)
[38] = target: MAP3K10 (human) (UniProt Q02779)
[39] = target: MAP2K4 (human) (UniProt P45985)
[40] = target: CDKL1 (human) (UniProt Q00532)

CDKL5 (human), sequence (O76039 whole entry, looked up): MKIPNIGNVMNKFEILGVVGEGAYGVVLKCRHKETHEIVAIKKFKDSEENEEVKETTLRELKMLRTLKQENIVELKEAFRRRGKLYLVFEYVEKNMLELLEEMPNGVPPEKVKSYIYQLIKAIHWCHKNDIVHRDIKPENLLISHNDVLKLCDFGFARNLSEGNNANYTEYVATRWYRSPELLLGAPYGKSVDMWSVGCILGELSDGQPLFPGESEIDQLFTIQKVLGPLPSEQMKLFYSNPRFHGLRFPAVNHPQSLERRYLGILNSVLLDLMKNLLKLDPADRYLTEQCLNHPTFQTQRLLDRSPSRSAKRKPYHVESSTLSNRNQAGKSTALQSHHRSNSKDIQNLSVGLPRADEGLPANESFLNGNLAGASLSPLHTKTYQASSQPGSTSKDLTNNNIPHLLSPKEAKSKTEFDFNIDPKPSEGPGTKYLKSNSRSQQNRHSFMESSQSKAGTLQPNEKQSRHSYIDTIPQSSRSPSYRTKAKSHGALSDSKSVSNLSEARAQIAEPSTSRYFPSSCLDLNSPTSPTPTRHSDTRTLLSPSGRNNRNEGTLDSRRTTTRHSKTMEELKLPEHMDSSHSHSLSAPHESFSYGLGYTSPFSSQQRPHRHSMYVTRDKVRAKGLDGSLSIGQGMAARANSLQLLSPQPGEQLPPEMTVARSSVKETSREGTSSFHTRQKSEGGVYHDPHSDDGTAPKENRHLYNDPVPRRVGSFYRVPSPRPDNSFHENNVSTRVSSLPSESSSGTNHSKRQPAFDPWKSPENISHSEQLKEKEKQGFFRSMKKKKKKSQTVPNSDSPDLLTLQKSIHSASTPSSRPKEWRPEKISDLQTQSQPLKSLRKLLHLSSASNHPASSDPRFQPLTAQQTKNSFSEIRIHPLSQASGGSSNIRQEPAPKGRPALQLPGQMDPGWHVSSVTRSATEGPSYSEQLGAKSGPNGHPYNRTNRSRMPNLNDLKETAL
NEK2 (human), sequence (P51955 whole entry, looked up): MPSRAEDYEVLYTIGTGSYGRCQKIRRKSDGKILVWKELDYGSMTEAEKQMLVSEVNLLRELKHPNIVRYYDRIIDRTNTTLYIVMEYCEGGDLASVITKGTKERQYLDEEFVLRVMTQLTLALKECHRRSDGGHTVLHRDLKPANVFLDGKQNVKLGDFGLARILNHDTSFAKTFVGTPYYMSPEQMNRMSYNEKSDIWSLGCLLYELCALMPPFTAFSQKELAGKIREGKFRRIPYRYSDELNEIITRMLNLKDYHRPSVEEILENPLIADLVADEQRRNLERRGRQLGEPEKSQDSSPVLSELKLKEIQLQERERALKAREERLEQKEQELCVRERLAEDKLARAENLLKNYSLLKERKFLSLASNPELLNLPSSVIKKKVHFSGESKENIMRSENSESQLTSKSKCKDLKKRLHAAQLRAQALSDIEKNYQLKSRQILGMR

| Structure (SMILES) | kinase still bound, per cent of control [1] [%] | kinase still bound, per cent of control [2] [%] | kinase still bound, per cent of control [3] [%] | kinase still bound, per cent of control [4] [%] | kinase still bound, per cent of control [5] [%] | kinase still bound, per cent of control [6] [%] | kinase still bound, per cent of control [7] [%] | kinase still bound, per cent of control [8] [%] | kinase still bound, per cent of control [10] [%] | kinase still bound, per cent of control [11] [%] | kinase still bound, per cent of control [12] [%] | kinase still bound, per cent of control [13] [%] | kinase still bound, per cent of control [14] [%] | kinase still bound, per cent of control [15] [%] | kinase still bound, per cent of control [16] [%] | kinase still bound, per cent of control [17] [%] | kinase still bound, per cent of control [20] [%] | kinase still bound, per cent of control [21] [%] | kinase still bound, per cent of control [22] [%] | kinase still bound, per cent of control [23] [%] | also measured |
| --- | --- | --- | --- | --- | --- | --- | --- | --- | --- | --- | --- | --- | --- | --- | --- | --- | --- | --- | --- | --- | --- |
| CCN(CC)CCCCNc1ncc2c(n1)N(C)C(=O)N(c1c(Cl)c(OC)cc(OC)c1Cl)C2 | 100 | 100 | 100 | 100 | 100 | 100 | 100 | 100 | 100 | 100 | 100 | 100 | 100 | 100 | 100 | 100 | 100 | 100 | 100 | 100 | kinase still bound, per cent of control [9]: 100%; kinase still bound, per cent of control [18]: 100%; kinase still bound, per cent of control [19]: 100%; kinase still bound, per cent of control [24]: 100%; kinase still bound, per cent of control [25]: 100%; kinase still bound, per cent of control [26]: 100%; kinase still bound, per cent of control [27]: 100%; kinase still bound, per cent of control [28]: 100%; kinase still bound, per cent of control [29]: 100%; kinase still bound, per cent of control [30]: 100%; kinase still bound, per cent of control [31]: 100%; kinase still bound, per cent of control [32]: 100%; kinase still bound, per cent of control [33]: 100%; kinase still bound, per cent of control [34]: 100%; kinase still bound, per cent of control [35]: 100%; kinase still bound, per cent of control [36]: 10%; kinase still bound, per cent of control [37]: 100%; kinase still bound, per cent of control [38]: 100%; kinase still bound, per cent of control [39]: 100% |
| CNC(=O)c1cc(Oc2ccc(NC(=O)Nc3ccc(Cl)c(C(F)(F)F)c3)cc2)ccn1 | 15 | 88 | 99 | 0.1 | 100 | 56 | 100 | 100 | 100 | 23 | 72 | 0 | 78 | 67 | 91 | 80 | 63 | 75 | 9.2 | 30 | kinase still bound, per cent of control [9]: 34%; kinase still bound, per cent of control [40]: 70%; kinase still bound, per cent of control [26]: 100%; kinase still bound, per cent of control [27]: 27%; kinase still bound, per cent of control [28]: 94%; kinase still bound, per cent of control [29]: 100%; kinase still bound, per cent of control [30]: 98%; kinase still bound, per cent of control [31]: 91%; kinase still bound, per cent of control [33]: 0.2%; kinase still bound, per cent of control [34]: 41%; kinase still bound, per cent of control [35]: 97%; kinase still bound, per cent of control [37]: 42%; kinase still bound, per cent of control [38]: 73%; kinase still bound, per cent of control [39]: 100% |
| C[C@@H](Oc1cc(-c2cnn(C3CCNCC3)c2)cnc1N)c1c(Cl)ccc(F)c1Cl | 50 | 56 | 74 | 0.3 | 81 | 25 | 3.4 | 65 | 1.2 | 100 | 96 | 100 | 28 | 100 | 100 | 22 | 100 | 42 | 0.7 | 2.7 | kinase still bound, per cent of control [40]: 81%; kinase still bound, per cent of control [18]: 100%; kinase still bound, per cent of control [26]: 100%; kinase still bound, per cent of control [28]: 100%; kinase still bound, per cent of control [29]: 68%; kinase still bound, per cent of control [30]: 100%; kinase still bound, per cent of control [32]: 0.2%; kinase still bound, per cent of control [33]: 100%; kinase still bound, per cent of control [34]: 63%; kinase still bound, per cent of control [35]: 12%; kinase still bound, per cent of control [37]: 6%; kinase still bound, per cent of control [38]: 79%; kinase still bound, per cent of control [39]: 93% |
